Patent US10676442B2, “Salt derivative of tetrahydroisoquinoline and crystalline thereof and preparation method therefore and application thereof” (CHINA STATE INSTITUTE OF PHARMACEUTICAL INDUSTRY, priority 2016, dated 2020)
In brackets after ≈: the same amount, converted by molar mass. Several values for one entry are separate records, joined by “and”; a condition that tells them apart may be missing. Equal entries are not always repeated. Entries after “also recorded” stand apart in the source; their conditions may differ. Structures can show the parent of a compound that is named as a salt. Where two headings read alike, the source gives them in different places. Values belong to the compound of their own block, whether it stands above or below them.

What was measured:
[1] = Measurement of solubility in water by liquid chromatography; format: physicochemical; conditions: for Solubility in water / solubility at 12 h: saturated solution shaken 12 hrs at 30° C., HPLC, in water; for Solubility in water compared to SIPI-409 and SIPI-409 hydrochloride: in words; for solubility at 12 h: thermodynamic from solid
Description: Solubility of SIPI-409 and of the salt derivatives thereof in water was measured by liquid chromatography.
Main steps: preparing SIPI-409 standards at the concentrations of 5 ? g/mL, 10 ? g/mL, 50 ? g/mL, 100 ? g/mL, 200 ? g/mL and establishing the standard curve of these preparations.
Chromatography Conditions:
Chromatography column: Phenomenex Luna 5u C18(2) 100 A 4.6×200 mm
Detection wave-length: 210 nm
Mobile phase: acetonitrile/phosphate buffer (0.68 g/L monopotassium phosphate, pH was adjusted to 3.0 using triethylamine)=68/32
Column temperature: 30° C.
Load volume: 10 ? L
Residence time: around 6.3 min
Sample treatment: the test samples were prepared into saturated solutions in water (suspensions) and shaken for 12 hrs at 30° C., which were further ultrasonicated for 30 s, followed by filtration and preparation of serial dilutions as appropriate, which were then analyzed by HPLC.

[2] = Pharmacokinetic study, single oral dose in SD rats (LC-MS/MS of plasma); format: in vivo
Description: SIPI-409 hydrochloride and SIPI-409 phosphate were administrated peros (PO), and were studied on in vivo pharmacokinetic parameters and bioavailability in SD rats. Concentrations of SIPI-409 hydrochloride and SIPI-409 phosphate in plasma were measured at intervals using Liquid Chromatography-Mass Spectrometry-Mass Spectrometry assay.
The obtained plasma concentration data were processed using the pharmacokinetic processing software WinNonlin 5.2 to calculate the relevant pharmacokinetic parameters according to non-compartmental model.

[3] = Pharmacokinetics after intravenous administration in SD rats; format: in vivo; conditions: α-crystalline form, compared with SIPI-409 hydrochloride
[4] = Temperature stability investigation (60° C. oven, XRPD); format: physicochemical; conditions: oven at 60° C., XRPD on day 0, 5, 10, 20 and 30
Description: Phosphate, nicotinate, glycolate, oxalate, orotate, benzenesulfonate and sulfate of SIPI-409 were placed in an oven at 60° C. XRPD measurements were carried out on samples taken out on day 0, 5, 10, 20 and 30.

[5] = Humidity stability investigation (92.5% RH, XRPD); format: physicochemical; conditions: 92.5% RH (saturated KNO3), XRPD on day 0, 5, 10, 20 and 30
Description: The phosphate, nicotinate, glycolate, oxalate, orotate, benzenesulfonate and sulfate of SIPI-409 were kept in a 92.5% RH (saturated KNO3) atomosphere. XRPD measurements were carried out on samples taken out on day 0, 5, 10, 20 and 30.

[6] = Light stability investigation (light incubator, XRPD); format: physicochemical
Description: The phosphate, nicotinate, glycolate, oxalate, orotate, benzenesulfonate and sulfate of SIPI-409 were placed in a light incubator. XRPD measurements were carried out on samples taken out on day 0, 5, 10, 20 and 30.

[7] = Hygroscopicity investigation (dynamic vapor sorption); format: physicochemical; conditions: dynamic vapor sorption analyzer
Text: Hygroscopicity was further investigated by placing the phosphate, nicotinate, glycolate, oxalate, orotate, benzenesulfonate and sulfate of SIPI-409 in a dynamic vapor sorption (DVS) analyzer.

[8] = Preliminary pharmacokinetic studies (background); format: in vivo, SD rats; conditions: for bioavailability: rat, plasma, oral administration, SD rats
Text: This can be explained by the excessively low solubility of the salt.

[9] = PO 10 mg/kg (based on SIPI-409), single dose, 10 mg/kg
[10] = XRPD on day 0, 5, 10, 20 and 30

Compound: COc1cc2c(cc1OCc1ccccc1)C(Cc1cccc(NS(C)(=O)=O)c1)NCC2 (stereo not shown) [SIPI-409, 1-(3-methanesulfonamidobenzyl)-6-methoxy,7-benzyloxy-1,2,3,4-tetrahydroisoquinoline, reference compound]
- Solubility in water [1]: 70 µg/mL (≈ 155 µM)

Compound: COc1cc2c(cc1OCc1ccccc1)C(Cc1cccc(NS(C)(=O)=O)c1)NCC2 (stereo not shown) [SIPI-409 Phosphate, 1-(3-methanesulfonamidobenzyl)-6-methoxy,7-benzyloxy-1,2,3,4-tetrahydroisoquinoline]
- Solubility in water [1]: 9690 µg/mL
- Solubility in water compared to SIPI-409 and SIPI-409 hydrochloride [1]: significantly increased solubility in water
- AUC(0-t) [2, 9]: 1366.89 ng·h/mL
- AUC(0-∞) [2, 9]: 1437.93 ng·h/mL
- F (bioavailability) [2, 9]: 79% and 79.33%
- half-life ([2]; SD, rat, plasma, po, 10 mg/kg, PO 10 mg/kg (based on SIPI-409), single dose): 2.66 h
- Cmax ([2]; SD, rat, plasma, po, 10 mg/kg, PO 10 mg/kg (based on SIPI-409), single dose, read-out: Cmax): 376 ng/mL
- MRT inf ([2]; SD, rat, plasma, po, 10 mg/kg, PO 10 mg/kg (based on SIPI-409), single dose, read-out: MRT(0-∞)): 4.23 h
- Increase of bioavailability compared to SIPI-409 hydrochloride ([2]; oral administration): 329%
- Tmax ([2]; rat, plasma, PO 10 mg/kg (based on SIPI-409), single dose, read-out: Tmax): 0.33 h
- Pharmacokinetic parameters after intravenous administration [3]: substantially comparable to SIPI-409 hydrochloride
- Stability 60° C. ([4]; listed as SIPI-409 phosphate): satisfactory stabilities
- Stability 60° C. ([4]; listed as phosphate): Stable
- Stability 92.5% RH ([5]; listed as SIPI-409 phosphate): satisfactory stabilities
- Stability 92.5% RH ([5]; listed as phosphate): Stable
- Stability Light ([6]; XRPD on day 0, 5, 10, 20 and 30, listed as SIPI-409 phosphate): satisfactory stabilities
- Stability Light ([6]; XRPD on day 0, 5, 10, 20 and 30, listed as phosphate): Stable
- DVS Max Hygroscopicity ([7]; listed as SIPI-409 phosphate): 0.7%
- DVS Max Hygroscopicity ([7]; listed as phosphate): 0.7%

Compound: COc1cc2c(cc1OCc1ccccc1)C(Cc1cccc(NS(C)(=O)=O)c1)NCC2 (stereo not shown) [SIPI-409 Ethionate, 1-(3-methanesulfonamidobenzyl)-6-methoxy,7-benzyloxy-1,2,3,4-tetrahydroisoquinoline]
- Solubility in water [1]: 440 µg/mL (≈ 972 µM)

Compound: COc1cc2c(cc1OCc1ccccc1)C(Cc1cccc(NS(C)(=O)=O)c1)NCC2 (stereo not shown) [SIPI-409 Oxalate, 1-(3-methanesulfonamidobenzyl)-6-methoxy,7-benzyloxy-1,2,3,4-tetrahydroisoquinoline]
- Solubility in water [1]: 3520 µg/mL
- Solubility in water compared to SIPI-409 and SIPI-409 hydrochloride [1]: significantly increased solubility in water
- Stability 60° C. [4]: Stable
- Stability 92.5% RH [5]: Hygroscopic
- Stability Light [6, 10]: Stable
- DVS Max Hygroscopicity [7]: 9.5%

Compound: COc1cc2c(cc1OCc1ccccc1)C(Cc1cccc(NS(C)(=O)=O)c1)NCC2 (stereo not shown) [SIPI-409 Succinate, 1-(3-methanesulfonamidobenzyl)-6-methoxy,7-benzyloxy-1,2,3,4-tetrahydroisoquinoline]
- Solubility in water [1]: 160 µg/mL

- bioavailability [8]: 70%
Compound: CC(C)NCC(O)c1ccc(NS(C)(=O)=O)cc1 (stereo not shown) [Sotalol]

Compound: COc1cc2c(cc1OCc1ccccc1)C(Cc1cccc(NS(C)(=O)=O)c1)NCC2 (stereo not shown) [SIPI-409 Hydrobromate, 1-(3-methanesulfonamidobenzyl)-6-methoxy,7-benzyloxy-1,2,3,4-tetrahydroisoquinoline]
- Solubility in water [1]: 440 µg/mL (≈ 972 µM)

Compound: COc1cc2c(cc1OCc1ccccc1)C(Cc1cccc(NS(C)(=O)=O)c1)NCC2 (stereo not shown) [SIPI-409 Benzenesulfonate, 1-(3-methanesulfonamidobenzyl)-6-methoxy,7-benzyloxy-1,2,3,4-tetrahydroisoquinoline]
- solubility at 12 h ([1]; read-out: Solubility): 3210 µM
- solubility at 12 h ([1]; read-out: Solubility in water): 1960 µg/mL
- Stability 60° C. [4]: Stable
- Stability 92.5% RH [5]: Hygroscopic
- Stability Light [6, 10]: Stable
- DVS Max Hygroscopicity [7]: 4.5%

Compound: COc1cc2c(cc1OCc1ccccc1)C(Cc1cccc(NS(C)(=O)=O)c1)NCC2 (stereo not shown) [SIPI-409 Glycolate, 1-(3-methanesulfonamidobenzyl)-6-methoxy,7-benzyloxy-1,2,3,4-tetrahydroisoquinoline]
- Solubility in water [1]: 3210 µg/mL (≈ 7090 µM)
- Solubility in water compared to SIPI-409 and SIPI-409 hydrochloride [1]: significantly increased solubility in water
- Stability 60° C. [4]: Stable
- Stability 92.5% RH [5]: Stable
- Stability Light [6, 10]: Stable
- DVS Max Hygroscopicity [7]: 0.8%

Compound: COc1cc2c(cc1OCc1ccccc1)C(Cc1cccc(NS(C)(=O)=O)c1)NCC2 (stereo not shown) [SIPI-409 Nicotinate, 1-(3-methanesulfonamidobenzyl)-6-methoxy,7-benzyloxy-1,2,3,4-tetrahydroisoquinoline]
- Solubility in water [1]: 4260 µg/mL (≈ 9410 µM)
- Solubility in water compared to SIPI-409 and SIPI-409 hydrochloride [1]: significantly increased solubility in water
- Stability 60° C. [4]: less stable against heat and degraded since day 5; also recorded: Instable
- Stability 92.5% RH [5]: Hygroscopic
- Stability Light [6, 10]: Stable
- DVS Max Hygroscopicity [7]: 4.5%

Compound: COc1cc2c(cc1OCc1ccccc1)C(Cc1cccc(NS(C)(=O)=O)c1)NCC2 (stereo not shown) [SIPI-409 Fumarate, 1-(3-methanesulfonamidobenzyl)-6-methoxy,7-benzyloxy-1,2,3,4-tetrahydroisoquinoline]
- Solubility in water [1]: 120 µg/mL

Compound: COc1cc2c(cc1OCc1ccccc1)C(Cc1cccc(NS(C)(=O)=O)c1)NCC2 (stereo not shown) [SIPI-409 Sulfate, 1-(3-methanesulfonamidobenzyl)-6-methoxy,7-benzyloxy-1,2,3,4-tetrahydroisoquinoline]
- Solubility in water [1]: 5760 µg/mL
- Solubility in water compared to SIPI-409 and SIPI-409 hydrochloride [1]: significantly increased solubility in water
- Stability 60° C. [4]: Stable
- Stability 92.5% RH [5]: Hygroscopic
- Stability Light [6, 10]: Stable
- DVS Max Hygroscopicity [7]: 5.2%

Compound: COc1cc2c(cc1OCc1ccccc1)C(Cc1cccc(NS(C)(=O)=O)c1)NCC2 (stereo not shown) [SIPI-409 Tartarate, 1-(3-methanesulfonamidobenzyl)-6-methoxy,7-benzyloxy-1,2,3,4-tetrahydroisoquinoline]
- Solubility in water [1]: 220 µg/mL (≈ 486 µM)

Compound: COc1cc2c(cc1OCc1ccccc1)C(Cc1cccc(NS(C)(=O)=O)c1)NCC2 (stereo not shown) [SIPI-409 Orotate, 1-(3-methanesulfonamidobenzyl)-6-methoxy,7-benzyloxy-1,2,3,4-tetrahydroisoquinoline]
- Solubility in water [1]: 1930 µg/mL (≈ 4260 µM)
- Solubility in water compared to SIPI-409 and SIPI-409 hydrochloride [1]: significantly increased solubility in water
- Stability 60° C. [4]: Stable
- Stability 92.5% RH [5]: Stable
- Stability Light [6, 10]: Stable
- DVS Max Hygroscopicity [7]: 1.1%

Compound: COc1cc2c(cc1OCc1ccccc1)C(Cc1cccc(NS(C)(=O)=O)c1)NCC2 (stereo not shown) [SIPI-409 Hydrochloride, 1-(3-methanesulfonamidobenzyl)-6-methoxy,7-benzyloxy-1,2,3,4-tetrahydroisoquinoline, reference compound]
- Solubility in water [1]: 510 µg/mL
- Tmax ([2]; PO 10 mg/kg (based on SIPI-409), single dose): 0.33 h
- AUC(0-t) [2, 9]: 482.88 ng·h/mL
- AUC(0-∞) [2, 9]: 503.82 ng·h/mL
- Cmax [2, 9]: 191.96 ng/mL
- F (bioavailability) [2, 9]: 24.63%
- t1/2 [2, 9]: 1.8 h
- t1/2 of injection ([8]; injection, compared with Sotalol): close to that of Sotalol
- bioavailability [8]: 24%

Compound: COc1cc2c(cc1OCc1ccccc1)C(Cc1cccc(NS(C)(=O)=O)c1)NCC2 (racemic) [SIPI-409 Malate, 1-(3-methanesulfonamidobenzyl)-6-methoxy,7-benzyloxy-1,2,3,4-tetrahydroisoquinoline]
- solubility at 12 h ([1]; water, 30 °C, water, read-out: Solubility): 650 µM
- solubility at 12 h ([1]; water, 30 °C, water, read-out: Solubility in water): 380 µg/mL
